Columns and labels:
[1] = test system: lipoxygenase pathway (5-HETE production in rat neutrophils); experiment: Protocol for Detecting Inhibitors of the Lipoxygenase Pathway (5-HETE production in rat neutrophils); format: cell-based; details: Neutrophil, 0.05 h, [14C]-arachidonic acid and Calcium Ionophore A23187, 3 minutes at 30° C., 5-HETE produced, read-out: I50
Experimental: The following protocol describes an assay to detect inhibitors of the lipoxygenase pathway. Such inhibitors are believed to be capable of modulating the biosynthesis of the leukotrienes, a property believed to be useful in treating asthma and inflammatory disease states.
Protocol for Detecting Inhibitors of the Lipoxygenase Pathway
A suspension of rat neutrophils in buffer is incubated for 3 minutes at 30° C. with [^14 C]-arachidonic acid (AA) and Calcium Ionophore A23187. Citric acid (2M) is used to quench the reaction. Following the addition of a trace amount of (^3 H)-5-HETE together with an excess of unlabeled 5-HETE to each tube, the mixture is extracted with chloroform/methanol. The organic layer is washed with dilute acid and an aliquot is transferred to glass tubes and dried. […] After adjusting for the extraction efficiency, the amount (pmole) of [^14 C]-5-HETE in each of the tubes is quantitated by substracting the net pmoles of 5-HETE in the tubes containing buffer alone (blank) from the pmoles of 5-HETE in the tubes containing […]. The ability of the test compounds to modulate the activity of this enzyme is determined by a decrease or increase in the net amount of 5-HETE produced.

[2] = test system: leukotriene C4-induced contraction of guinea pig peripheral lung strips; experiment: Protocol for SRS-A Antagonists: leukotriene C4-induced contraction of guinea pig peripheral lung strips; details: 0.2 nM leukotriene C4, read-out: concentration required for 50% inhibition of 0.2 nM leukotriene C4-induced contraction
Experimental: Leukotrienes, the products of the 5-lipoxygenase pathway of arachidonic acid metabolism, are potent contractile agents with a variety of smooth muscle preparations. […] The following protocol describes an in vitro assay used to test compounds which specifically antagonize the actions of leukotrienes.
Protocol for SRS-A (slow reacting substance of anaphylaxis) Antagonists
Peripheral strips of guinea pig lungs are prepared and hung in tissue baths (Metro #ME-5505, 10 ml) according to the published procedure--(Proc. Nat'l Acad. Sci., U.S.A. Volume 77, pp. 4354-4358, 1980). The strips are thoroughly rinsed in Assay Buffer and then connected with surgical silk thread to support rods from the tissue baths. The rods are adjusted in the baths and the strips connected to the pressure transducers (Grass FT 103 or Gould UC-3). The tissue baths are aerated with 95% oxygen--5% carbon dioxide and maintained at 37° C. The assay buffer has been made as follows: for each liter of buffer the following are added to approximately 800 ml of water distilled in glass-6.87 g NaCl, 0.4 g KCl, 2.1 g NaHCO3, 0.14 g NaH2 PO4.H2 O, 0.21 g MgSO4.7H2 O, and 2.0 g D-glucose. […]
Responses of each tissue to a pre-determined concentration of leukotriene are then obtained. […] The intrinsic activity of the compounds, and their effect on leukotriene-induced contractions are then recorded.

[3] = test system: SRS-A component of anaphylactic bronchoconstriction; experiment: Bronchial Anaphylaxis in Guinea Pigs with Enhanced Leukotrienes (BAGEL); format: in vivo, guinea pig; details: 100 mg/kg, i.d., guinea pigs immunized with ovalbumin
Experimental: Protocol for in vivo Testing of Modulators of SRS-A (slow reacting substances of anaphylaxis)
This test, known as the Bronchial Anaphylaxis in Guinea Pigs with Enhanced Leukotrienes (BAGEL), is based on the procedure published in Agents and Actions, Vol. II, pp. 396-401, 1981, and is performed with guinea pigs actively immunized (14 days) with ovalbumin (2.7 mg/kg, i.p.) and B. pertussis (5×10^9 organisms) as an adjuvant. Prior to challenge with antigen (ovalbumin), the animals are anesthetized and prepared for monitoring pulmonary dynamics by whole body plethysmography. They are treated with an H1 antihistamine (methapyrilene, 2 mg/kg, i.v.) and cyclooxygenase inhibitor (indomethacin; 20 mg/kg, i.p.) in order to enhance the SRS-A component of anaphylactic bronchoconstriction. Bronchoconstriction is quantified as the maximum increase in airway resistance following antigen challenge. The drug is administered either i.p. 10 minutes before challenge, or i.d. 15 minutes before challenge.

IC50 [1] | IC50 [2] | SMILES | activity in BAGEL test (bronchoconstriction following antigen challenge) [3]
500 nM | 900 nM | c1ccc(OCc2ccc3ccccc3n2)cc1 [2-Phenoxymethyl quinoline] | highly active
700 nM | 300 nM | COc1ccc(OCc2ccc3ccccc3n2)cc1 [2-(p-methoxyphenoxymethyl) quinoline, 2-(p-Methoxyphenoxymethyl) quinoline] | –

— US4631287A, “Aryl and heteroaryl ethers as agents for the treatment of hypersensitive ailments” (USV Pharmaceutical Corp., priority 1985, dated 1986)
